System: SCW-arthritis rats
Experiment: Two-dimensional subchondral bone analysis (structure, connectivity/strut analysis, plate thickness) of proximal tibia, SCW-arthritis rats
Type: in vivo, Lewis type rats
[1] = SCW + 20 mg, Middle section/lateral
[2] = SCW + 20 mg, Middle section/medial

## CCCC(=O)N[C@H]1C(O)O[C@H](CO)[C@@H](O)[C@@H]1O (stereo partly drawn) [GlcNBu, N-butyryl-D-glucosamine]
SCW + 20 mg, Anterior/lateral
  2D-BV/TV % loss: 40%
  2D-BV/TV Mean ± SEM: 23.7 ± 2.3%
  2D-Tb.N % loss: 21%
  2D-Tb.N Mean ± SEM: 5.8 ± 0.4 /mm
  2D-Tb.Th % loss: 32%
  2D-Tb.Th Mean ± SEM: 38.7 ± 1.7 um
  End Points % loss: −134%
  End Points Mean ± SEM: 36.2 ± 2.5 1/mm2
  Multiple points % loss: 43%
  Multiple points Mean ± SEM: 9.3 ± 1.6 1/mm2
  Node-node struts % loss: 75%
  Node-node struts Mean ± SEM: 0.8 ± 0.2 mm/mm2
  Total Strut length % loss: 30%
  Total Strut length Mean ± SEM: 5.3 ± 0.4 mm/mm2
SCW + 20 mg, Anterior/medial
  2D-BV/TV % loss: 33%
  2D-BV/TV Mean ± SEM: 27.2 ± 1.4%
  2D-Tb.N % loss: 12%
  2D-Tb.N Mean ± SEM: 5.6 ± 0.3 /mm
  2D-Tb.Th % loss: 29%
  2D-Tb.Th Mean ± SEM: 48.6 ± 1.6 um
  End Points % loss: −67%
  End Points Mean ± SEM: 22.5 ± 1.7 1/mm2
  Multiple points % loss: 42%
  Multiple points Mean ± SEM: 9.2 ± 1.0 1/mm2
  Node-node struts % loss: 47%
  Node-node struts Mean ± SEM: 1.2 ± 0.2 mm/mm2
  Total Strut length % loss: 14%
  Total Strut length Mean ± SEM: 5.1 ± 0.3 mm/mm2
[1]
  2D-BV/TV % loss: 13%
  2D-BV/TV Mean ± SEM: 24.9 ± 1.6%
  2D-Tb.N % loss: 2%
  2D-Tb.N Mean ± SEM: 4.6 ± 0.2 /mm
  2D-Tb.Th % loss: 11%
  2D-Tb.Th Mean ± SEM: 54.3 ± 2.8 um
  End Points % loss: −69%
  End Points Mean ± SEM: 17.5 ± 1.9 1/mm2
  Multiple points % loss: 16%
  Multiple points Mean ± SEM: 8.3 ± 1.1 1/mm2
  Node-node struts % loss: 3%
  Node-node struts Mean ± SEM: 1.0 ± 0.2 mm/mm2
  Total Strut length % loss: 14%
  Total Strut length Mean ± SEM: 4.0 ± 0.2 mm/mm2
[2]
  2D-BV/TV % loss: 31%
  2D-BV/TV Mean ± SEM: 29.2 ± 2.3%
  2D-Tb.N % loss: 1%
  2D-Tb.N Mean ± SEM: 4.6 ± 0.2 /mm
  2D-Tb.Th % loss: 30%
  2D-Tb.Th Mean ± SEM: 63.0 ± 4.0 um
  End Points % loss: −184%
  End Points Mean ± SEM: 14.1 ± 2.3 1/mm2
  Multiple points % loss: 13%
  Multiple points Mean ± SEM: 9.9 ± 1.1 1/mm2
  Node-node struts % loss: 42%
  Node-node struts Mean ± SEM: 1.2 ± 0.2 mm/mm2
  Total Strut length % loss: 11%
  Total Strut length Mean ± SEM: 4.2 ± 0.3 mm/mm2
SCW + 20 mg, Posterior/lateral
  2D-BV/TV % loss: 21%
  2D-BV/TV Mean ± SEM: 24.9 ± 1.5%
  2D-Tb.N % loss: 7%
  2D-Tb.N Mean ± SEM: 4.8 ± 0.2 /mm
  2D-Tb.Th % loss: 19%
  2D-Tb.Th Mean ± SEM: 51.8 ± 1.6 um
  End Points % loss: −100%
  End Points Mean ± SEM: 20.0 ± 1.8 1/mm2
  Multiple points % loss: 55%
  Multiple points Mean ± SEM: 7.8 ± 0.8 1/mm2
  Node-node struts % loss: 30%
  Node-node struts Mean ± SEM: 0.9 ± 0.1 mm/mm2
  Total Strut length % loss: 11%
  Total Strut length Mean ± SEM: 4.3 ± 0.2 mm/mm2
SCW + 20 mg, Posterior/medial
  2D-BV/TV % loss: 20%
  2D-BV/TV Mean ± SEM: 36.2 ± 1.6%
  2D-Tb.N % loss: 3%
  2D-Tb.N Mean ± SEM: 6.2 ± 0.2 /mm
  2D-Tb.Th % loss: 23%
  2D-Tb.Th Mean ± SEM: 59.3 ± 2.3 um
  End Points % loss: −216%
  End Points Mean ± SEM: 16.2 ± 2.1 1/mm2
  Multiple points % loss: 36%
  Multiple points Mean ± SEM: 12.6 ± 1.4 1/mm2
  Node-node struts % loss: 37%
  Node-node struts Mean ± SEM: 1.7 ± 0.3 mm/mm2
  Total Strut length % loss: 10%
  Total Strut length Mean ± SEM: 5.7 ± 0.3 mm/mm2
SCW + 200 mg, Anterior/lateral
  2D-BV/TV % loss: 37%
  2D-BV/TV Mean ± SEM: 24.8 ± 3.4%
  2D-Tb.N % loss: 20%
